Data set [1] deals with Plasmodium falciparum. As to the kind of experiment: microbe, parasite or virus in culture. The settings on record: NF54, 72 h.
Data set [2] is described as follows: physchem. The settings on record: buffer, pH 7.4.
In data set [3] the target is Voltage-gated inwardly rectifying potassium channel KCNH2 (Homo sapiens, UniProt Q12809). As to the kind of experiment: Inhibition of human ERG expressed in CHO-K1 cells by Q-patch clamp assay.
Data set [4] concerns Plasmodium falciparum. As to the kind of experiment: Antiplasmodial activity against multidrug resistant Plasmodium falciparum K1 incubated for 72 hrs by microplate reader assay. Type of data set: functional, organism-based. The settings on record: K1, 72 h.
Data set [5] can be described thus: Cytotoxicity against CHO cells measured after 48 hrs by MTT assay. The settings on record: Chinese hamster. (In general: Tetrazolium assays rely on reduction of a dye to a coloured formazan, in cell work by metabolically active cells.)
Data set [6] is described as follows: Selectivity index, ratio of IC50 for Plasmodium falciparum NF54 to IC50 for CHO cells. The settings on record: hamster.

Values after ≈ are worked out from the molar mass of the structure shown.

Sequence of Voltage-gated inwardly rectifying potassium channel KCNH2 (Q12809 whole entry): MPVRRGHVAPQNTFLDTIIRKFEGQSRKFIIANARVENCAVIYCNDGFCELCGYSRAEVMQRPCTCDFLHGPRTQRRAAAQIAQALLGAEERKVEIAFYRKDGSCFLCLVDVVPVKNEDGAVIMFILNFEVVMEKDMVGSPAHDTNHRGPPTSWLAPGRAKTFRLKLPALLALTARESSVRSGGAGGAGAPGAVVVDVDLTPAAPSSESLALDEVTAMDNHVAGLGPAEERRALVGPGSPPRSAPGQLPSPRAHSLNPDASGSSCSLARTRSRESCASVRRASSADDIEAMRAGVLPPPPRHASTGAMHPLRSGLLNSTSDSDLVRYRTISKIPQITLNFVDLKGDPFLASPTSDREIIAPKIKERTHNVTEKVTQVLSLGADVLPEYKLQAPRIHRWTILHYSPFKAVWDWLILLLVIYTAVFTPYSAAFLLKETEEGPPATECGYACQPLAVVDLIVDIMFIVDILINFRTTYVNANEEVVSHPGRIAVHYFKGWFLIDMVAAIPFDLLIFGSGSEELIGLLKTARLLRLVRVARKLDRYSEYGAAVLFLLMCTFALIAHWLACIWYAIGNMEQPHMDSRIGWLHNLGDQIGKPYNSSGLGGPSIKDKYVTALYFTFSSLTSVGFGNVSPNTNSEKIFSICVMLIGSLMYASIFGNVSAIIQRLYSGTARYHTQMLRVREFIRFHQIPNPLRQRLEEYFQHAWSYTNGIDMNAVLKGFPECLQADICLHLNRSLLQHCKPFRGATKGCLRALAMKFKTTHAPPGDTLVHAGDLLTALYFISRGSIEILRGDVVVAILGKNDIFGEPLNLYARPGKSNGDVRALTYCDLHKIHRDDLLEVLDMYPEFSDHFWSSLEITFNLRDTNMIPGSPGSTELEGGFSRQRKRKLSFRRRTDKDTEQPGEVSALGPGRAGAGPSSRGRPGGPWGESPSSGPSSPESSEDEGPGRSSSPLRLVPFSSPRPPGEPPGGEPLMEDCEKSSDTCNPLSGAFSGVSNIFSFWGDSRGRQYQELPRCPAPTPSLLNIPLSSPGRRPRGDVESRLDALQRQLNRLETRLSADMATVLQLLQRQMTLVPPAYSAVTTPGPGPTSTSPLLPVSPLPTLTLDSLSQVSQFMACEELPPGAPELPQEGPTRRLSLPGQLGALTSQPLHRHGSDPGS

Broadly, the IC50 is the concentration at which inhibition is half-maximal. In data set [1], `Cc1noc(-c2ccc(CCN3CC[C@@H](Nc4nc5ccccc5n4Cc4ccc(C#N)cc4)C3)cc2)n1` showed an IC50 of 448 nM.
As a reminder, the kinetic solubility is solubility judged after dilution from a stock solution rather than from solid. Regarding `Cn1c(NC2CCN(CCc3ccc(C(=O)N4CCC(C)(O)C4)cc3)CC2)nc2ccccc21` (stereo not given), the solubility (kinetic) at 2 h in data set [2] came to 80 µM (≈ 36.9 µg/mL). Moreover, the IC50 in data set [1] was over 6000 nM.
`Cn1c(NC2CCN(CCc3ccc(C(=O)NC4(CO)CC4)cc3)CC2)nc2ccccc21`: the IC50 in data set [3] is over 30000 nM; in data set [1], 1730 nM. The compound further registered a solubility (kinetic) at 2 h in data set [2] of 60 µM (≈ 26.9 µg/mL).
As to `COc1ccc2c(c1)nc(NC1CCN(CCc3ccc(-c4nc(C)no4)cc3)CC1)n2C`, in data set [2], the kinetic solubility at 2 h was determined as 80 µM (≈ 35.7 µg/mL). This compound returned an IC50 in data set [1] of 309 nM.
With `Cc1noc(-c2ccc(CCN3CC[C@H](Nc4nc5ccccc5n4Cc4ccc(C#N)cc4)C3)cc2)n1`, half-maximal inhibition in data set [1] (IC50) required 515 nM.
For the compound `Cc1noc(-c2ccc(CCN3CCC(Nc4nc5cc(F)ccc5n4C)CC3)cc2)n1`, the IC50 in data set [3] was found to be 28700 nM; in data set [1], 834 nM. The compound also registered a kinetic solubility at 2 h in data set [2] of 80 µM (≈ 34.8 µg/mL).
For `Cc1noc(-c2ccc(CCN3CCC(Nc4nc5ccccc5n4Cc4cccnc4)CC3)cc2)n1`, in data set [1], the IC50 came out at 304 nM.
In data set [2], `Cn1c(NC2CCN(CCc3ccc(C(=O)N4CCOCC4)cc3)CC2)nc2ccccc21` returned a solubility (kinetic) at 2 h of 80 µM (≈ 35.8 µg/mL). Moreover, the IC50 in data set [1] is over 6000 nM.
Compound `Cn1c(NC2CCN(CCc3ccc(-c4nc(CO)no4)cc3)CC2)nc2ccccc21` displayed a kinetic solubility at 2 h in data set [2] of 100 µM (≈ 43.3 µg/mL). For the same compound, in data set [1], half-maximal inhibition (IC50) was put at 567 nM.
Consider `Cc1noc(-c2ccc(CCN3CCC(Nc4nc5cc(F)c(F)cc5n4C)CC3)cc2)n1`, for which the solubility (kinetic) at 2 h in data set [2] stood at 80 µM (≈ 36.2 µg/mL). Moreover, in data set [1], half-maximal inhibition (IC50) was put at 1160 nM.
Regarding `Cc1nc(-c2ccc(CCN3CCC(Nc4nc5ccccc5n4Cc4ccc(C#N)cc4)CC3)cc2)no1`, the results for the half-inhibitory concentration (IC50) in data set [4] and in data set [1] were 174 nM and 51 nM, respectively. This compound displayed a 50% inhibitory concentration (IC50) at 48 h in data set [5] (CHO cells) of 5870 nM. For the same compound, the selectivity ratio in data set [6] was 115. The same compound gave a kinetic solubility at 2 h in data set [2] of 40 µM (≈ 20.7 µg/mL).
For the compound `Cc1noc(-c2ccc(CCN3CCC(Nc4nc5cc(C)c(C)cc5n4C)CC3)cc2)n1`, the solubility (kinetic) at 2 h in data set [2] turned out to be 60 µM (≈ 26.7 µg/mL). In addition, in data set [1], the 50% inhibitory concentration (IC50) is 163 nM.
In the same order, the values of `Cn1c(NC2CCN(CCc3ccc(C(=O)NCCN)cc3)CC2)nc2ccccc21` are 100 µM (≈ 42.1 µg/mL) and over 6000 nM.
On to `CN(C)Cc1noc(-c2ccc(CCN3CCC(Nc4nc5ccccc5n4C)CC3)cc2)n1`, for which the kinetic solubility at 2 h in data set [2] is 120 µM (≈ 55.2 µg/mL). Besides, the IC50 in data set [1] is 831 nM.
For `N#Cc1ccc(Cn2c(NC3CCN(CCc4ccc(-c5ncon5)cc4)CC3)nc3ccccc32)cc1`, the concentration for half-maximal inhibition (IC50) stood at 399 nM in data set [4] and 89 nM in data set [1]. Further, the half-maximal inhibitory concentration (IC50) at 48 h in data set [5] (CHO cells) turned out to be 16600 nM. Further, the selectivity ratio in data set [6] was 187. This compound showed a kinetic solubility at 2 h in data set [2] of 40 µM (≈ 20.1 µg/mL).
Compound `Cc1noc(-c2ccc(CCN3CCC(Nc4nc5ccccc5n4C(C)C)CC3)cc2)n1` came in with a kinetic solubility at 2 h in data set [2] of 20 µM (≈ 8.89 µg/mL). This compound showed an IC50 in data set [1] of 702 nM.
As to `CSCc1noc(-c2ccc(CCN3CCC(Nc4nc5ccccc5n4C)CC3)cc2)n1`, the kinetic solubility at 2 h in data set [2] was determined as 80 µM (≈ 37 µg/mL). The IC50 in data set [1] was 383 nM.
In the same order, the values of `COC(=O)c1ccc(CCN2CCC(Nc3nc4ccccc4n3C)CC2)cc1` are 120 µM (≈ 47.1 µg/mL) and 1450 nM.
Take `Cn1c(NC2CCN(CCc3ccc(-c4nc(C(=O)O)no4)cc3)CC2)nc2ccccc21`: the IC50 was over 30000 nM in data set [3] and over 6000 nM in data set [1]. Also, the solubility (kinetic) at 2 h in data set [2] was found to be 120 µM (≈ 53.6 µg/mL).
For the compound `Cc1noc(-c2ccc(CCN3CCC(Nc4nc5cc(C#N)ccc5n4C)CC3)cc2)n1`, in data set [2], the solubility (kinetic) at 2 h is 80 µM (≈ 35.3 µg/mL). This compound displayed an IC50 in data set [1] of 611 nM.
Turning to `Cc1noc(-c2ccc(CCN3CCC(Nc4nc5ccccc5n4Cc4ccc(C#N)cc4)CC3)cc2)n1`, the IC50 was found to be 178 nM in data set [4] and 97 nM in data set [1]. In addition, inhibition in data set [5] (cho) was half-maximal at 19700 nM (IC50 at 48 h).
For `Cc1nnc(-c2ccc(CCN3CCC(Nc4nc5ccccc5n4Cc4ccc(C#N)cc4)CC3)cc2)o1`, the solubility (kinetic) at 2 h in data set [2] worked out at 20 µM (≈ 10.4 µg/mL). Further, in data set [1], the half-maximal inhibitory concentration (IC50) is 519 nM.
In the same order, the values of `Cc1noc(-c2ccc(CCN3CCC(Nc4nc5cc(Br)ccc5n4C)CC3)cc2)n1` are 80 µM (≈ 39.6 µg/mL) and 720 nM.
On the same counts, the results for `Cn1c(NC2CCN(CCc3ccc(C(=O)N4CCN5CCCC5C4)cc3)CC2)nc2ccccc21` (stereo not given) are 60 µM (≈ 29.2 µg/mL) and 1280 nM.
In the same order, the values of `Cn1c(NC2CCN(CCc3ccc(C(=O)NCCO)cc3)CC2)nc2ccccc21` are 120 µM (≈ 50.6 µg/mL) and 4170 nM.
In data set [2], `Cc1noc(-c2ccc(CCN3CCC(Nc4nc5cc(C(F)(F)F)ccc5n4C)CC3)cc2)n1` gave a solubility (kinetic) at 2 h of 40 µM (≈ 19.4 µg/mL). In data set [1], this compound came in with an IC50 of 422 nM.
As to `C[C@@H]1CN=C(c2ccc(CCN3CCC(Nc4nc5ccccc5n4Cc4ccc(C#N)cc4)CC3)cc2)O1`, the results for the IC50 in data set [4] and in data set [1] were 352 nM and 104 nM, respectively. Also, the kinetic solubility at 2 h in data set [2] came out at 60 µM (≈ 31.1 µg/mL).
Compound `Cn1c(NC2CCN(CCc3ccc(-c4nc(C5CC5)no4)cc3)CC2)nc2ccccc21` had a kinetic solubility at 2 h in data set [2] of 60 µM (≈ 26.6 µg/mL). For the same compound, in data set [1], the concentration for half-maximal inhibition (IC50) is 484 nM.
In data set [2], `Cc1noc(-c2ccc(CCN3CCC(Nc4nc5cc(C(=O)O)ccc5n4C)CC3)cc2)n1` had a solubility (kinetic) at 2 h of 160 µM (≈ 73.7 µg/mL). For the same compound, the IC50 in data set [1] was over 6000 nM.
As to `COC(=O)c1ccc2c(c1)nc(NC1CCN(CCc3ccc(-c4nc(C)no4)cc3)CC1)n2C`, the IC50 in data set [3] was determined as 490 nM; in data set [1], 496 nM. In data set [2], this compound displayed a solubility (kinetic) at 2 h of 120 µM (≈ 56.9 µg/mL).
Consider `C[C@H]1COC(c2ccc(CCN3CCC(Nc4nc5ccccc5n4Cc4ccc(C#N)cc4)CC3)cc2)=N1`, for which the half-inhibitory concentration (IC50) in data set [4] is 263 nM; in data set [1], 74 nM. Further, the concentration for half-maximal inhibition (IC50) at 48 h in data set [5] (CHO cells) was found to be 38900 nM. Also, the selectivity ratio in data set [6] came to 525. The same compound had a kinetic solubility at 2 h in data set [2] of 20 µM (≈ 10.4 µg/mL).
As for `Cc1noc(-c2ccc(CCN3CCC(Nc4nc5cc(S(C)(=O)=O)ccc5n4C)CC3)cc2)n1`, in data set [2], the solubility (kinetic) at 2 h was found to be 60 µM (≈ 29.7 µg/mL). For the same compound, the half-maximal inhibitory concentration (IC50) in data set [1] was 4650 nM.
In the same order, the values of `C=CCNC(=O)c1ccc(CCN2CCC(Nc3nc4ccccc4n3C)CC2)cc1` are 80 µM (≈ 33.4 µg/mL) and 2610 nM.
In the same order, the values of `CC(C)c1noc(-c2ccc(CCN3CCC(Nc4nc5ccccc5n4C)CC3)cc2)n1` are 60 µM (≈ 26.7 µg/mL) and 492 nM.
Take `Cn1c(NC2CCN(CCc3ccc(C(=O)O)cc3)CC2)nc2ccccc21`: the solubility (kinetic) at 2 h in data set [2] came out at 160 µM (≈ 60.6 µg/mL). In data set [1], this compound gave an IC50 of over 6000 nM.
On the same counts, the results for `Cc1noc(-c2ccc(CCN3CC4(CCN(c5nc6ccccc6n5Cc5ccc(C#N)cc5)C4)C3)cc2)n1` are 40 µM (≈ 21.2 µg/mL) and 446 nM.
With `Cc1noc(-c2ccc(CCN3CCC(Nc4nc5ccccc5n4Cc4ccc(C(F)(F)F)cc4)CC3)cc2)n1`, the concentration for half-maximal inhibition (IC50) in data set [4] was determined as 104 nM; in data set [1], 30 nM. In data set [5] (CHO cells), this compound displayed a 50% inhibitory concentration (IC50) at 48 h of 3330 nM. Also, the selectivity ratio in data set [6] was determined as 111. The same compound returned a solubility (kinetic) at 2 h in data set [2] of 10 µM (≈ 5.61 µg/mL).
Regarding `Cn1c(NC2CCN(CCc3ccc(C(=O)N4CCC(O)C4)cc3)CC2)nc2ccccc21` (stereo not given), the solubility (kinetic) at 2 h in data set [2] stood at 80 µM (≈ 35.8 µg/mL). The same compound returned a 50% inhibitory concentration (IC50) in data set [1] of 3990 nM.
`Cc1noc(-c2ccc(CCN3CCC(Nc4nc5cc(Cl)c(Cl)cc5n4C)CC3)cc2)n1` returned a solubility (kinetic) at 2 h in data set [2] of 80 µM (≈ 38.8 µg/mL). The compound further registered an IC50 in data set [1] of 514 nM.
On the same counts, the results for `Cc1noc(-c2ccc(CCN3CCC(Nc4nc5ccccc5n4CC4CCC(F)(F)CC4)CC3)cc2)n1` are 20 µM (≈ 10.7 µg/mL) and 460 nM.

These data come from ChEMBL document CHEMBL5236628 (J Med Chem, 2022).
